Test results from patent US20230203098A1, “HUMAN TRANSFERRIN RECEPTOR BINDING PEPTIDE” (priority 2020, published 2023).
Where two headings read alike, the source gives them in different places. *1 amine or outer side, *2 acyl side, *3 side chain or, on linkers, in order; H or OH if unused. Where a SMILES comes first, the peptide text is derived from it. Bridges are numbered along the chain shown (N, C = ends). Side-chain parts run from the residue outwards. [ ]: non-standard residue; d: D form. The star is where a group is joined. PEG12 = NCCOCCOCCOCCOCCOCCOCCOCCOCCOCCOCCOCCOCCC(=O)O; Phe(4-Cl) = N[C@@H](Cc1ccc(Cl)cc1)C(=O)O; Lys(N3) = [N-]=[N+]=NCCCC[C@H](N)C(=O)O; NMeY = CN[C@@H](Cc1ccc(O)cc1)C(=O)O; NMeF = CN[C@@H](Cc1ccccc1)C(=O)O; Piperazinyl(4-Me) = CN1CCN(*)CC1; Ahp(2) = CCCCC[C@H](N)C(=O)O; Chg = N[C@H](C(=O)O)C1CCCCC1; PEG4 = NCCOCCOCCOCCOCCC(=O)O; Aib = CC(C)(N)C(=O)O; CO = O=C([*:1])[*:2]

Biological target: transferrin receptor (hTfR) (Homo sapiens, UniProt P02786)
Assay: Intermolecular interaction evaluation test between transferrin receptor (hTfR) and peptide by surface plasmon resonance (SPR)
Assay type: binding
How it was run: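 Receptor was Ni-captured and EDC/NHS-fixed on an NTA chip; running buffer HEPES pH 8.0 with NaCl, Tween 20, BSA and 1.0% DMSO.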

[1] = binding to hTfR by SPR, Table 2 peptides, read-out: KD value (SPR) class
[2] = surface plasmon resonance, peptide vs hTfR, read-out: KD value, hTfR binding by SPR (class symbol)

transferrin receptor (hTfR), sequence (P02786 whole entry): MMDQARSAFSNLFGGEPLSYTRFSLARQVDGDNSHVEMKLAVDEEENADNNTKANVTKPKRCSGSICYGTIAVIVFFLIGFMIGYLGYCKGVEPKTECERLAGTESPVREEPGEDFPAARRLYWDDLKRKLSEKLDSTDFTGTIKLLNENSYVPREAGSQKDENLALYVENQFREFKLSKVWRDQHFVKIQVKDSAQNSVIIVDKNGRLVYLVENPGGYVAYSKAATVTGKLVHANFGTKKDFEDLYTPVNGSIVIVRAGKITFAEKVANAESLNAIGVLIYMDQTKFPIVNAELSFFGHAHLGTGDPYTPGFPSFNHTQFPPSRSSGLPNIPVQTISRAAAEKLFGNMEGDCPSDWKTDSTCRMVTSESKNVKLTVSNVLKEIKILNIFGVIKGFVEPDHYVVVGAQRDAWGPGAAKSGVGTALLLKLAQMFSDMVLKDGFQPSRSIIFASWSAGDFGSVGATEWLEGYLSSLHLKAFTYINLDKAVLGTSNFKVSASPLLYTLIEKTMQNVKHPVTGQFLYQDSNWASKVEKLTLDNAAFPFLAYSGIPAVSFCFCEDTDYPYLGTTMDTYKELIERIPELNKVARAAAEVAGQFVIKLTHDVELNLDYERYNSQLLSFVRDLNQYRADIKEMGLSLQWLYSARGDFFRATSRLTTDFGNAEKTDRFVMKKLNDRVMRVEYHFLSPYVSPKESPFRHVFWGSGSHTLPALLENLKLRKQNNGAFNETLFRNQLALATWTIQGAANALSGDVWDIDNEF

Compound | Kd [1] [nM] | Kd [2] [nM]
CC[C@H](C)[C@@H]1NC(=O)[C@H](Cc2ccc(O)cc2)NC(=O)[C@H](Cc2ccc(O)cc2)NC(=O)[C@H](CC(N)=O)NC(=O)[C@H](Cc2c[nH]c3ccccc23)N(C)C(=O)[C@H](C(C)C)NC(=O)[C@H](Cc2ccccc2)NC(=O)[C@H](C(C)C)NC(=O)[C@H](C)NC(=O)CSC[C@@H](C(=O)NCCOCCOCCOCCOCCC(N)=O)NC(=O)[C@H](Cc2ccc(O)cc2)N(C)C(=O)[C@H](Cc2ccc(O)cc2)NC(=O)[C@H](CCCNC(=N)N)NC(=O)[C@H](CCCNC(=N)N)NC(=O)[C@H]([C@@H](C)CC)NC1=O [compound 264] | < 1 | –
CC[C@H](C)[C@@H]1NC(=O)[C@H](C2CCCCC2)NC(=O)[C@H](Cc2ccc(O)cc2)NC(=O)[C@H](Cc2ccc(O)cc2)NC(=O)[C@H](CC(N)=O)NC(=O)[C@H](Cc2c[nH]c3ccccc23)NC(=O)[C@H](C2CCCCC2)NC(=O)[C@H](Cc2ccccc2)N(C)C(=O)[C@H](C(C)C)NC(=O)[C@H](C)NC(=O)CSC[C@@H](C(=O)NCCOCCOCCOCCOCCOCCOCCOCCOCCOCCOCCOCCOCCC(N)=O)NC(=O)[C@H](Cc2ccc(O)cc2)N(C)C(=O)[C@H](Cc2ccc(O)cc2)NC(=O)[C@H](CCCNC(=N)N)NC(=O)[C@H](CCCNC(=N)N)NC1=O [compound 266] ({CH2CO}-AV[NMeF][Chg]WNYY[Chg]IRRY[NMeY]C[PEG12]-NH2; thioether N-15) | 100 to 1000 | –
CC[C@H](C)[C@@H]1NC(=O)[C@H](C2CCCCC2)NC(=O)[C@H](Cc2ccc(O)cc2)NC(=O)[C@H](Cc2ccc(O)cc2)NC(=O)[C@H](CC(N)=O)NC(=O)[C@H](Cc2c[nH]c3ccccc23)NC(=O)[C@H](C2CCCCC2)NC(=O)[C@H](Cc2ccccc2)N(C)C(=O)[C@H](C(C)C)NC(=O)[C@H](C)NC(=O)CSC[C@@H](C(N)=O)NC(=O)[C@H](Cc2ccc(O)cc2)N(C)C(=O)[C@H](Cc2ccc(O)cc2)NC(=O)[C@H](CCCNC(=N)N)NC(=O)[C@H](CCCNC(=N)N)NC1=O [compound 267] ({CH2CO}-AV[NMeF][Chg]WNYY[Chg]IRRY[NMeY]C-NH2; thioether N-15) | 100 to 1000 | –
CC[C@H](C)[C@@H]1NC(=O)[C@H](Cc2ccc(O)cc2)NC(=O)[C@H](Cc2ccc(O)cc2)NC(=O)[C@H](CC(N)=O)NC(=O)[C@H](Cc2c[nH]c3ccc(Cl)cc23)NC(=O)[C@H](C(C)C)NC(=O)[C@H](Cc2ccccc2)N(C)C(=O)[C@H](C(C)C)NC(=O)[C@H](C)NC(=O)CSC[C@@H](C(N)=O)NC(=O)[C@H](Cc2ccc(O)cc2)N(C)C(=O)[C@H](Cc2ccc(O)cc2)NC(=O)[C@H](CCCNC(=N)N)NC(=O)[C@H](CCCNC(=N)N)NC(=O)[C@H]([C@@H](C)CC)NC1=O [compound 268] | 1 to 100 | –
CC[C@H](C)[C@@H]1NC(=O)[C@H](Cc2ccc(O)cc2)NC(=O)[C@H](Cc2ccc(O)cc2)NC(=O)[C@H](CC(N)=O)NC(=O)[C@H](Cc2c[nH]c3ccc(F)cc23)NC(=O)[C@H](C(C)C)NC(=O)[C@H](Cc2ccccc2)N(C)C(=O)[C@H](C(C)C)NC(=O)[C@H](C)NC(=O)CSC[C@@H](C(N)=O)NC(=O)[C@H](Cc2ccc(O)cc2)N(C)C(=O)[C@H](Cc2ccc(O)cc2)NC(=O)[C@H](CCCNC(=N)N)NC(=O)[C@H](CCCNC(=N)N)NC(=O)[C@H]([C@@H](C)CC)NC1=O [compound 269] | 1 to 100 | –
CC[C@H](C)[C@@H]1NC(=O)[C@H](Cc2ccc(O)cc2)NC(=O)[C@H](Cc2ccc(O)cc2)NC(=O)[C@H](CC(N)=O)NC(=O)[C@H](Cc2c[nH]c3cc(F)ccc23)NC(=O)[C@H](C(C)C)NC(=O)[C@H](Cc2ccccc2)N(C)C(=O)[C@H](C(C)C)NC(=O)[C@H](C)NC(=O)CSC[C@@H](C(N)=O)NC(=O)[C@H](Cc2ccc(O)cc2)N(C)C(=O)[C@H](Cc2ccc(O)cc2)NC(=O)[C@H](CCCNC(=N)N)NC(=O)[C@H](CCCNC(=N)N)NC(=O)[C@H]([C@@H](C)CC)NC1=O [compound 270] | 1 to 100 | –
CC[C@H](C)[C@@H]1NC(=O)[C@H](Cc2ccc(O)cc2)NC(=O)[C@H](Cc2ccc(O)cc2)NC(=O)[C@H](CC(N)=O)NC(=O)[C@H](Cc2cn(CCO)c3ccccc23)NC(=O)[C@H](C(C)C)NC(=O)[C@H](Cc2ccccc2)N(C)C(=O)[C@H](C(C)C)NC(=O)[C@H](C)NC(=O)CSC[C@@H](C(N)=O)NC(=O)[C@H](Cc2ccc(O)cc2)N(C)C(=O)[C@H](Cc2ccc(O)cc2)NC(=O)[C@H](CCCNC(=N)N)NC(=O)[C@H](CCCNC(=N)N)NC(=O)[C@H]([C@@H](C)CC)NC1=O [compound 271] | 1 to 100 | –
CC[C@H](C)[C@@H]1NC(=O)[C@H](Cc2ccc(O)cc2)NC(=O)[C@H](Cc2ccc(O)cc2)NC(=O)[C@H](Cc2c[nH]cn2)NC(=O)[C@H](Cc2c[nH]c3ccccc23)NC(=O)[C@H](C(C)C)NC(=O)[C@H](Cc2ccccc2)N(C)C(=O)[C@H](C(C)C)NC(=O)[C@H](C)NC(=O)CSC[C@@H](C(N)=O)NC(=O)[C@H](Cc2ccc(O)cc2)N(C)C(=O)[C@H](Cc2ccc(O)cc2)NC(=O)[C@H](CCCNC(=N)N)NC(=O)[C@H](CCCNC(=N)N)NC(=O)[C@H]([C@@H](C)CC)NC1=O [compound 274] | 100 to 1000 | –
CCCCC[C@@H]1NC(=O)[C@H](CC(N)=O)NC(=O)[C@H](Cc2c[nH]c3ccccc23)NC(=O)[C@H](C(C)C)NC(=O)[C@H](Cc2ccccc2)N(C)C(=O)[C@H](C(C)C)NC(=O)[C@H](C)NC(=O)CSC[C@@H](C(=O)NCC(=O)N[C@@H](CCCCN=[N+]=[N-])C(N)=O)NC(=O)[C@H](Cc2ccc(O)cc2)N(C)C(=O)[C@H](Cc2ccc(O)cc2)NC(=O)[C@H](CCCNC(=N)N)NC(=O)[C@H](CCCNC(=N)N)NC(=O)[C@H]([C@@H](C)CC)NC(=O)[C@H]([C@@H](C)CC)NC(=O)[C@H](Cc2ccc(O)cc2)NC1=O [compound 276] ({CH2CO}-AV[NMeF]VWN[Ahp(2)]YIIRRY[NMeY]CG[Lys(N3)]-NH2; thioether N-15) | 100 to 1000 | –
CC[C@H](C)[C@@H]1NC(=O)[C@H](Cc2ccc(O)cc2)NC(=O)[C@H](Cc2ccc(Cl)cc2)NC(=O)[C@H](CC(N)=O)NC(=O)[C@H](Cc2c[nH]c3ccccc23)NC(=O)[C@H](C(C)C)NC(=O)[C@H](Cc2ccccc2)N(C)C(=O)[C@H](C(C)C)NC(=O)[C@H](C)NC(=O)CSC[C@@H](C(=O)NCC(=O)N[C@@H](CCCCN=[N+]=[N-])C(N)=O)NC(=O)[C@H](Cc2ccc(O)cc2)N(C)C(=O)[C@H](Cc2ccc(O)cc2)NC(=O)[C@H](CCCNC(=N)N)NC(=O)[C@H](CCCNC(=N)N)NC(=O)[C@H]([C@@H](C)CC)NC1=O [compound 277] ({CH2CO}-AV[NMeF]VWN[Phe(4-Cl)]YIIRRY[NMeY]CG[Lys(N3)]-NH2; thioether N-15) | 100 to 1000 | –
CC[C@H](C)[C@@H]1NC(=O)[C@H](C2CCCCC2)NC(=O)[C@H](Cc2ccc(O)cc2)NC(=O)[C@H](Cc2ccc(O)cc2)NC(=O)[C@H](CC(N)=O)NC(=O)[C@H](Cc2c[nH]c3ccccc23)NC(=O)[C@H](C(C)C)NC(=O)[C@H](Cc2ccccc2)N(C)C(=O)[C@H](C(C)C)NC(=O)[C@H](C)NC(=O)CSC[C@@H](C(N)=O)NC(=O)[C@H](Cc2ccc(O)cc2)N(C)C(=O)[C@H](Cc2ccc(O)cc2)NC(=O)[C@H](CCCNC(=N)N)NC(=O)[C@H](CCCNC(=N)N)NC1=O [compound 282] | 1 to 100 | –
CC[C@H](C)[C@@H]1NC(=O)[C@H](C2CCCCC2)NC(=O)[C@H](Cc2ccc(O)cc2)NC(=O)[C@H](Cc2ccc(O)cc2)NC(=O)[C@H](CC(N)=O)NC(=O)[C@H](Cc2c[nH]c3ccccc23)NC(=O)[C@H](C(C)C)NC(=O)[C@H](Cc2ccccc2)N(C)C(=O)[C@H](C(C)C)NC(=O)[C@H](C)NC(=O)CSC[C@@H](C(=O)NCCOCCOCCOCCOCCOCCOCCOCCOCCOCCOCCOCCOCCC(N)=O)NC(=O)[C@H](Cc2ccc(O)cc2)N(C)C(=O)[C@H](Cc2ccc(O)cc2)NC(=O)[C@H](CCCNC(=N)N)NC(=O)[C@H](CCCNC(=N)N)NC1=O [compound 283] ({CH2CO}-AV[NMeF]VWNYY[Chg]IRRY[NMeY]C[PEG12]-NH2; thioether N-15) | 1 to 100 | –
CC[C@H](C)[C@@H]1NC(=O)[C@H](Cc2ccc(O)cc2)NC(=O)[C@H](Cc2ccc(O)cc2)NC(=O)[C@H](CC(N)=O)NC(=O)[C@H](Cc2c[nH]c3ccccc23)NC(=O)[C@H](C(C)C)NC(=O)[C@H](Cc2ccccc2)N(C)C(=O)[C@H](C(C)C)NC(=O)[C@H](C)NC(=O)CSC[C@@H](C(=O)NCCOCCOCCOCCOCCC(N)=O)NC(=O)[C@H](Cc2ccc(O)cc2)N(C)C(=O)[C@H](Cc2ccc(O)cc2)NC(=O)[C@H](CCCCNC(=O)N2CCN(C)CC2)NC(=O)C(C)(C)NC(=O)[C@H]([C@@H](C)CC)NC1=O [compound 290] ({CH2CO}-AV[NMeF]VWNYYII[Aib]K([CO-Piperazinyl(4-Me)])Y[NMeY]C[PEG4]-NH2; thioether N-15) | > 1000 | –
CC[C@H](C)[C@@H]1NC(=O)[C@H](Cc2ccc(O)cc2)NC(=O)[C@H](Cc2ccc(O)cc2)NC(=O)[C@H](CC(N)=O)NC(=O)[C@H](Cc2c[nH]c3ccccc23)NC(=O)[C@H](C(C)C)NC(=O)[C@H](Cc2ccccc2)N(C)C(=O)[C@H](C(C)C)NC(=O)[C@H](C)NC(=O)CSC[C@@H](C(=O)N[C@H](CCC(=O)O)C(N)=O)NC(=O)[C@H](Cc2ccc(O)cc2)N(C)C(=O)[C@H](Cc2ccc(O)cc2)NC(=O)[C@H](CCCNC(=N)N)NC(=O)[C@H](C)NC(=O)[C@H]([C@@H](C)CC)NC1=O [compound 291] ({CH2CO}-AV[NMeF]VWNYYIIARY[NMeY]C[dE]-NH2; thioether N-15) | – | 1 to 100
CC[C@H](C)[C@@H]1NC(=O)[C@H](Cc2ccc(O)cc2)NC(=O)[C@H](Cc2ccc(O)cc2)NC(=O)[C@H](CC(N)=O)NC(=O)[C@H](Cc2c[nH]c3ccccc23)NC(=O)[C@H](C(C)C)NC(=O)[C@H](Cc2ccccc2)N(C)C(=O)[C@H](C(C)C)NC(=O)[C@H](C)NC(=O)CSC[C@@H](C(N)=O)NC(=O)[C@H](Cc2ccc(O)cc2)N(C)C(=O)[C@H](Cc2ccc(O)cc2)NC(=O)[C@H](CCCNC(=N)N)NC(=O)[C@H](CCCCN)N(C)C(=O)[C@H]([C@@H](C)CC)NC1=O [compound 292] | – | 1 to 100
